# Measured values as given in patent publication US7541336B2 (priority 2002, dated 2009).
# Columns and labels:
# [1] = molecular target: ryanodine receptor of mouse origin (Mus musculus, UniProt E9PZQ0); experiment: Ryanodine binding inhibition, crude mammalian ryanodine receptor
# Description: (2) Preparation of Mammalian Crude Ryanodine Receptor Fraction was Performed as Follows.
# Muscles of the hind legs of ICR mouse were finely cut, and 3.0 g thereof was homogenized at 0° C., 1,000 rpm for 3×30 sec using glass homogenizer in 15 ml of buffer B (20 mM Tris-HCl buffer (pH 8.0) containing 4 μg/ml aprotinin and 4 μg/ml leupeptin). The homogenate was transferred into the micro test tube, and the glass homogenizer was also washed with the 7.5 ml of buffer B, and the washed solution was also added to the micro test tube, which was stirred, then centrifuged by using ultracentrifuge cooled at 4° C., 25,000×g for 40 min. 2.4 ml of the buffer B was added to the obtained precipitate and suspended to obtain the crude ryanodine receptor fraction of mouse origin.
# (4) Binding Activity of Crude Mammalian Ryanodine Receptor was Assayed aAs Follows.
# 70 μl of the buffer A, 10 μl of ethanol solution of 0.1 nM ryanodine and 10 μl of 20 nM [9,21-^3H] (N) ryanodine were added into the 96 well microplate (Corning Inc. the U.S.). 10 μl of crude ryanodine receptor fraction of mouse origin was added to initiate the reaction, and shaken at room temperature for 90 min. by using microplate mixer. […] Radioactivity was measured by measuring fluorescence intensity of the filter with using scintillation counter (Wallac Inc. the U.S., MicroBeta™ TriLux).
# [2] = Solubility in solvent; assay type: physicochemical
# [3] = system: Caenorhabditis elegans; experiment: Anti-nematode activity, 96 well plate; assay type: in vivo; conditions: at 20 μg/ml, observed after 2 days under microscope
# Description: (§1) Methanol solution of FKI-1033 substance was added into 96 well plate (Corning Inc., the U.S.), removed off methanol in vacuo, added 250 μl of test medium (lecithin 0.01%, sodium hydrogen carbonate 7.5 mM, potassium chloride 7.5 mM, calcium chloride dihydrate 7.5 mM and magnesium sulfate heptahydrate 7.5 mM) and shaken for 15 min. 50 μl of buffer containing several nauplii of Artemia salina, which were hatched off in the buffer, was added thereto, and about ten nematodes, Caenorhabditis elegans, which were bred on agar medium for growth of nematode, were added thereto.
# [4] = molecular target: T1, ryanodine receptor of Periplaneta americana origin (Periplaneta americana, UniProt A0ABQ8T696); experiment: Ryanodine binding inhibition, crude ryanodine receptor of Periplaneta americana
# T1 sequence (A0ABQ8T696 1-1387): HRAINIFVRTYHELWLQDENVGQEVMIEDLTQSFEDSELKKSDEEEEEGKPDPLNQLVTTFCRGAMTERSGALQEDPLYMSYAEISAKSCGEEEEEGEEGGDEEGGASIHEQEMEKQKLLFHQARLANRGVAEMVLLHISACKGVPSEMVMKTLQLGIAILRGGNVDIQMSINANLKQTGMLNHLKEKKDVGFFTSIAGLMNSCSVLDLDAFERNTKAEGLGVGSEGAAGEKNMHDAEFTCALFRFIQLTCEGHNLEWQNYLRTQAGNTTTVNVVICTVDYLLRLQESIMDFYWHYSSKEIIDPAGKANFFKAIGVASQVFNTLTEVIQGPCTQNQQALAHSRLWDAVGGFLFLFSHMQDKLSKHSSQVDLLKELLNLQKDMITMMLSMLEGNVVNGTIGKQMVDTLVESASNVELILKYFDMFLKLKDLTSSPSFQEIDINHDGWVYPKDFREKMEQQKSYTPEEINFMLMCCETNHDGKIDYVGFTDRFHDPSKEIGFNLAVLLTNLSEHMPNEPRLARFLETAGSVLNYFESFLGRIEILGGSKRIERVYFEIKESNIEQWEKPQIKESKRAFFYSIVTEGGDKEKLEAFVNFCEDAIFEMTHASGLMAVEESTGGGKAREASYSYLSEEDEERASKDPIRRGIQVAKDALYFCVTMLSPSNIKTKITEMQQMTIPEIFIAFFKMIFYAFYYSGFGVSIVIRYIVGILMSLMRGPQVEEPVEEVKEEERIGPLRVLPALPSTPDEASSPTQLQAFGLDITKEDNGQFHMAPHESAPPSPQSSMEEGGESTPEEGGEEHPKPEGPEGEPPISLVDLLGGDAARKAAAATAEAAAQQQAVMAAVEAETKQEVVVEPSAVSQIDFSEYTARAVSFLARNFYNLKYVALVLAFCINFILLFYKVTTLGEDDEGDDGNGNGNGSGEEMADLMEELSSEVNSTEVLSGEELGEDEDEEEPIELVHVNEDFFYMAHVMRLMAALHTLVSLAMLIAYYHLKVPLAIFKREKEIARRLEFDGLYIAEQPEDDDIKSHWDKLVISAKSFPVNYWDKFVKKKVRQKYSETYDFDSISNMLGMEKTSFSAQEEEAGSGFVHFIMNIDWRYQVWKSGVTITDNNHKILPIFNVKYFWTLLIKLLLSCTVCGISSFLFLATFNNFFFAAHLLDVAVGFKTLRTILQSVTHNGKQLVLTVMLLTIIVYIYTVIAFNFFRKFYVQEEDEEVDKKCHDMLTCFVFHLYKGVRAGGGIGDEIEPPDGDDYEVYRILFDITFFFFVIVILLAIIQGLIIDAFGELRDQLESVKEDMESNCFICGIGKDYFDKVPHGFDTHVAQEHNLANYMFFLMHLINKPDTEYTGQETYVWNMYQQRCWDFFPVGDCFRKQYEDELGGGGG
# Description: (1) Preparation of the Crude Ryanodine Receptor Fraction of the Insect was Performed as Follows.
# The thorax and legs of ten adult insects of Periplaneta americana were frozen with liquid nitrogen and finely cut, and homogenized three times in 15 ml of 50 mM Tris HCl buffer (pH 7.4) containing 4 μg/ml leupeptin and 3 μg/ml pepstatin by using a knife homogenizer at 0° C., 24,000 rpm for 30 sec. The homogenate was filtered using double layered cotton cloth and the filtrate was centrifuged at 4° C., 3,000 rpm for 20 minutes. The obtained supernatant was centrifuged at 4° C., 30,000 rpm for 30 minutes and the precipitate suspended in 1 ml of 20 mM Tris HCl buffer (pH 8.0) containing 0.3 M sucrose, 500 μM calcium chloride and 1.5 M potassium chloride and homogenized with glass potter to obtain crude ryanodine receptor fraction. The crude ryanodine receptor fraction was used by diluting about 7 times with the buffer A (20 mM Tris-HCl buffer (pH 8.0) containing 4 μg/ml aprotinin, 4 μgμml leupeptin, 0.3 M sucrose and 500 μM calcium chloride) immediately before use. […]
# 70 μl of the buffer A, 10 μl of ethanol solution of 0.1 nM ryanodine and 10 μl of 20 nM [9,21-^3H] […] Radioactivity was measured by measuring fluorescence intensity of the filter with using scintillation counter (Wallac Inc. the U.S., MicroBeta™ TriLux)
# [5] = system: nauplii of Artemia salina; experiment: Anti-arthropod activity, 96 well plate; assay type: in vivo; conditions: at 20 μg/ml, observed after 2 days under microscope
# Description: as §1
# Chain of ryanodine receptor of mouse origin (E9PZQ0 whole entry): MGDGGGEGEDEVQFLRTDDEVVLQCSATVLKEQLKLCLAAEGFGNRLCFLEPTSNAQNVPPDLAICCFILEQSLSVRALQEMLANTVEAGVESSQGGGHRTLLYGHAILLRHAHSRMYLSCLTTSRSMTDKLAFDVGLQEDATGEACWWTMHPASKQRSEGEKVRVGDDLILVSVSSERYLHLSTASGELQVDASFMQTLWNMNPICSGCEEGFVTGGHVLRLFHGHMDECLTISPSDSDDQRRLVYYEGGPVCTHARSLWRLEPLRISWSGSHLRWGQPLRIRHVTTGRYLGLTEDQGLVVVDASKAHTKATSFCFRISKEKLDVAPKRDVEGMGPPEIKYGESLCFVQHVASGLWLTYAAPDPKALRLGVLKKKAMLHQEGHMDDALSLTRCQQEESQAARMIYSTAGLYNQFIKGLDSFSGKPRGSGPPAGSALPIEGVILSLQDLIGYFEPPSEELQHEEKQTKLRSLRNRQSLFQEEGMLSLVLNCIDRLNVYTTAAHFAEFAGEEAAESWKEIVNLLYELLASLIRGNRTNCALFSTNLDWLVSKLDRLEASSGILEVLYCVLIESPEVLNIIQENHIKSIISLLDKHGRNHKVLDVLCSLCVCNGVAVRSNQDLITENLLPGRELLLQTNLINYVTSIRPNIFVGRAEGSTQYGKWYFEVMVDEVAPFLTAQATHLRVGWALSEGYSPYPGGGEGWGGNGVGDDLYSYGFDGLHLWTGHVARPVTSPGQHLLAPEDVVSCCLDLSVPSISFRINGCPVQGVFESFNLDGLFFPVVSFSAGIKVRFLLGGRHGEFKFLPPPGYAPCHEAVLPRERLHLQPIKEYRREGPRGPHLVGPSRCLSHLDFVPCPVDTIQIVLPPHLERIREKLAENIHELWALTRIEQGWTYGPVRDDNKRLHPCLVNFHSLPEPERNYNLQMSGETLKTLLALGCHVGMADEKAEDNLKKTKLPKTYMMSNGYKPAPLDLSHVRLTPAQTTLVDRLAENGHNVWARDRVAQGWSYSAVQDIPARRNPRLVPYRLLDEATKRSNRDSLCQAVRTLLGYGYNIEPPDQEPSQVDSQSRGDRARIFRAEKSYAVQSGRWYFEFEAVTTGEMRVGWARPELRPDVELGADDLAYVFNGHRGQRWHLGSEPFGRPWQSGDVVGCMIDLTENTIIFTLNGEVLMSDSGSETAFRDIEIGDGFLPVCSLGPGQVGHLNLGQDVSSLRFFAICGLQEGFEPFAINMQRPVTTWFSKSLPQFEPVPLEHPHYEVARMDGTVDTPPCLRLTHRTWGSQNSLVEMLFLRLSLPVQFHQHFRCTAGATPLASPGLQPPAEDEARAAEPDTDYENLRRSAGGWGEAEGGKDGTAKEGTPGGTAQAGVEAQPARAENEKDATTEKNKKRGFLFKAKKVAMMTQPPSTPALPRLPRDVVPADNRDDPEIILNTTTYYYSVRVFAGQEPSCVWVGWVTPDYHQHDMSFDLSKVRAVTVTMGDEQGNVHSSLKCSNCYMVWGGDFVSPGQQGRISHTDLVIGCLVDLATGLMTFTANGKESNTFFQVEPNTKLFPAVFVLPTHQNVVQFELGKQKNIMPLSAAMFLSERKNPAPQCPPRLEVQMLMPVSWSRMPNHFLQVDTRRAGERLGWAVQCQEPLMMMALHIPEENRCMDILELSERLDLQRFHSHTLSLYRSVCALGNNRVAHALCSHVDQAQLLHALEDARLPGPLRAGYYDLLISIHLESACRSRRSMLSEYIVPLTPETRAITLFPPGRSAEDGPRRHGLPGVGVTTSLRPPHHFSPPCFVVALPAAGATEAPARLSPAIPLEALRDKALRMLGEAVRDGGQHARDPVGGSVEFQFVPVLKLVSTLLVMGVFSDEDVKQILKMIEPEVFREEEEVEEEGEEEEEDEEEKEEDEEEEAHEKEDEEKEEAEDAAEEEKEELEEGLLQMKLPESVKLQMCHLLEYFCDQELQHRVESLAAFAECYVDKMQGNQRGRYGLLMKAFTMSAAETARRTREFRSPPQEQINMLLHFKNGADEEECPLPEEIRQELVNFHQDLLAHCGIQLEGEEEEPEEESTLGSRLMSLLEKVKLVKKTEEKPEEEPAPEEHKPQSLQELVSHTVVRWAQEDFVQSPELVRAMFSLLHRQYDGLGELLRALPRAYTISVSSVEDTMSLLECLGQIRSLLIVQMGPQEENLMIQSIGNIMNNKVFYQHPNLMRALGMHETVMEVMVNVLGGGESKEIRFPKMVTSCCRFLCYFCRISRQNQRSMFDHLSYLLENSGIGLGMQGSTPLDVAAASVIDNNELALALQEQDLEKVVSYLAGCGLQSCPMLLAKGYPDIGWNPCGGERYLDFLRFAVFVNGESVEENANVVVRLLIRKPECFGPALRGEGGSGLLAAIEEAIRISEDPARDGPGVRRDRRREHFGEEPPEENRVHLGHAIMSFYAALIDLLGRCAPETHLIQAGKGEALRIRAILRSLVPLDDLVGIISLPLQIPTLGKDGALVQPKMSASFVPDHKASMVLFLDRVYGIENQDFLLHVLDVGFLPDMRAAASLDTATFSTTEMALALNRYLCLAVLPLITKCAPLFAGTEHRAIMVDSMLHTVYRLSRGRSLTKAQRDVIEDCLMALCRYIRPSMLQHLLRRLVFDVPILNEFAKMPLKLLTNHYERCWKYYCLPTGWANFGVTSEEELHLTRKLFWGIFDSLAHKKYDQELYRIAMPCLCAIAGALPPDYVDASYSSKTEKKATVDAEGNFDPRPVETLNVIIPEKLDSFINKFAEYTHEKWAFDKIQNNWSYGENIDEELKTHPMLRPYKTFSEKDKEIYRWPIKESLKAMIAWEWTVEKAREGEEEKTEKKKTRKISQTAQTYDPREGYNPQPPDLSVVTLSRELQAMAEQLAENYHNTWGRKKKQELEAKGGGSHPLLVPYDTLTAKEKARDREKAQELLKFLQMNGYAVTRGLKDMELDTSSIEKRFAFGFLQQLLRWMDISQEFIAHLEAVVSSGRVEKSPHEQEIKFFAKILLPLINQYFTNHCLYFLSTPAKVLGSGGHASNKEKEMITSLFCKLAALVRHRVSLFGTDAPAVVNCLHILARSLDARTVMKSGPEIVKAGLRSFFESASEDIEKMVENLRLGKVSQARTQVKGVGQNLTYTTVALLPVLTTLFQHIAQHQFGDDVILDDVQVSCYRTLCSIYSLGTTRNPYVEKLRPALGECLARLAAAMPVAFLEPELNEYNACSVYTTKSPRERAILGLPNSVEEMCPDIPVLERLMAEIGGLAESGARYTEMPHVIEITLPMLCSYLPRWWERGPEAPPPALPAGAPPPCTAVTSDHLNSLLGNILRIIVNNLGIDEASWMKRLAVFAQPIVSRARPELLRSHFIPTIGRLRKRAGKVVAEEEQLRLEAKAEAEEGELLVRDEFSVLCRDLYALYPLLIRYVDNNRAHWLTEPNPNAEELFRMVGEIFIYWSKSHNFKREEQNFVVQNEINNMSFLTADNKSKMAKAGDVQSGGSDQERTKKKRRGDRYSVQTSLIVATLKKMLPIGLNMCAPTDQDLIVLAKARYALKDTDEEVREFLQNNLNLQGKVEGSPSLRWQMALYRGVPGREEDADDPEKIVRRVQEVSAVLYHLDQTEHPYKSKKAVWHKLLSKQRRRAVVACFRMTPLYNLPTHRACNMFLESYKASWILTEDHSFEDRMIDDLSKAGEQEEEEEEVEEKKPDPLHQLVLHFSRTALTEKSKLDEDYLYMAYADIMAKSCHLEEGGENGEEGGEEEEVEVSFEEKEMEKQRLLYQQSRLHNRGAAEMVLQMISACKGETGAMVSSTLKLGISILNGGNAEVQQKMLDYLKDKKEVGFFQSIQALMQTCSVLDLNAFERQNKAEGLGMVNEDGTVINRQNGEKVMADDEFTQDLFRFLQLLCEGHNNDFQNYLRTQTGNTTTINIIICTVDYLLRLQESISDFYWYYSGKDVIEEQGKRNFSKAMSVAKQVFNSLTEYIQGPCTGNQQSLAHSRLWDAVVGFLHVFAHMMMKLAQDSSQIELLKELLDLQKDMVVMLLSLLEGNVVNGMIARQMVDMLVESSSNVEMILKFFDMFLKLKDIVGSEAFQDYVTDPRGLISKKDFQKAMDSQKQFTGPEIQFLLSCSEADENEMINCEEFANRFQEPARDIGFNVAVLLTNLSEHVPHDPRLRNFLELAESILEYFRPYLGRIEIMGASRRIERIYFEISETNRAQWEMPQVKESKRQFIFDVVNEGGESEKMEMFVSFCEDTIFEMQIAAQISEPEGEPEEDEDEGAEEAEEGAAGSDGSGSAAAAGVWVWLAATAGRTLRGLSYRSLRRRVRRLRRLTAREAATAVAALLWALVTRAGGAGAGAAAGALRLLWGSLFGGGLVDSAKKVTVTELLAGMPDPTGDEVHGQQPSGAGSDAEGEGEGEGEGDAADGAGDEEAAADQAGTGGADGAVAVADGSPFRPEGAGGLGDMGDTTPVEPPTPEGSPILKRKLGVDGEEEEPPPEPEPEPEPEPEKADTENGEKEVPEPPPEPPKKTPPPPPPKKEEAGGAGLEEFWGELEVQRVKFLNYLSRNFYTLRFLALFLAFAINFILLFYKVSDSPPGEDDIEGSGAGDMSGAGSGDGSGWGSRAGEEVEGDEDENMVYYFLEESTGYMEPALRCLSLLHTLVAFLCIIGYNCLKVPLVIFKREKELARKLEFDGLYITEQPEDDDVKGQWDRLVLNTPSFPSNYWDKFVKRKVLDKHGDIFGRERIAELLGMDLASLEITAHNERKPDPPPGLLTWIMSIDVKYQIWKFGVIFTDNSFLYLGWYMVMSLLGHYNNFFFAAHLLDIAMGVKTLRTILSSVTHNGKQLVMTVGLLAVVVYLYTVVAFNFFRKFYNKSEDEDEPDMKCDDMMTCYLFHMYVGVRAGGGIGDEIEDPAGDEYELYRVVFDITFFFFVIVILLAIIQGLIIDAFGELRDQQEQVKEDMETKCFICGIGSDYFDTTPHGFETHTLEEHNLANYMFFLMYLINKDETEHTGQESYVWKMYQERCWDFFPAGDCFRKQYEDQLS
smiles,measurement,setting,value
CCCCCC1OC(=O)C(C)N(C)C(=O)C(CCCCC)OC(=O)C(C)N(C)C(=O)C(CCCCC)OC(=O)C(C)N(C)C(=O)C(CCCCC)OC(=O)C(C)N(C)C1=O (stereo not shown) [FKI-1033 substance],IC50,[1],53.9 µM
same,Solubility in solvent,"[2]; methanol, ethanol, ethyl acetate and chloroform",Soluble
same,Solubility in solvent,[2]; water and n-hexane,Hardly soluble
same,growth inhibition of the nematodes (Caenorhabditis elegans),[3],inhibited growth
same,potency of ryanodine binding inhibition against the insect ryanodine receptor versus the mammalian ryanodine receptor,[4]; insect (Periplaneta americana) vs mammalian (mouse) receptor,more than ten times potent
same,IC50,"[4]; read-out: ryanodine binding inhibition activity, IC50, crude ryanodine receptor fraction of Periplaneta americana, [9,21-3H](N) ryanodine, room temperature 90 min",4.2 µM
same,growth inhibition of the arthropods (Artemia salina),[5],inhibited growth
